Key:
[1] = tested on: Pericytes isolated from bovine retina; assay: Pericyte protecting action: suppression of pericyte proliferation attributable to AGE; type: cell-based; settings: FIG. 1
Method: Pericytes were isolated from bovine retina and maintained in Dulbecco's modified Eagle medium containing 20% foetal calf serum. The suppression of pericyte proliferation attributable to AGE was measured by adding 0.25 mg of AGE-BSA (prepared in Reference Example 1) to a culture plate into which 3.0×10^4 cells had been plated, then culturing at 37° C. for 5 days and performing measurements using a Packard Cyto Life. Separately, Beraprost sodium (BPS) was added at a final concentration of 0.1-10 μM prior to AGE addition. As controls, measurements were carried out in the same way for the case when treatment was carried out with AGE-BSA only and for the case where no treatment was carried out. For each group, the tests were carried out 10 times respectively.

[2] = tested on: RAGE mRNA; assay: RAGE mRNA in pericytes by quantitative reverse transcription-polymerase chain reaction; type: cell-based, bovine; settings: 1 μM BPS treatment
Method: Pericytes were isolated from bovine retina and maintained in Dulbecco's modified Eagle medium containing 20% foetal calf serum. Next, the quantity of the AGE receptor RAGE mRNA present in the pericytes was analyzed by means of a quantitative reverse transcription-polymerase chain reaction method, in accordance with the technique described in Biochemical and Biophysical Research Communications, Vol. 213, 682-683, 1995.

- expression of RAGE (mRNA) [2]: expression of RAGE was suppressed
Structure (SMILES): CC#CCC(C)[C@H](O)/C=C/[C@@H]1[C@H]2c3cccc(CCCC(=O)O)c3O[C@H]2C[C@H]1O (relative stereo) [BPS, (±)-(1R*,2R*,3aS*,8bS*)-2,3,3a,8b-tetrahydro-2-hydroxy-1-[(E)-(3S*)-3-hydroxy-4-methyl-1-octen-6-ynyl]-1H-cyclopenta[b]benzofuran-5-butyric acid]
- improvement of AGE-induced suppression of pericyte proliferation ([1]; BPS 0.1-10 μM added prior to 0.25 mg AGE-BSA, 3.0×10^4 cells, 37° C., 5 days): improved in a concentration-dependent manner
- concentration at which improvement of suppression of proliferation was significant ([1]; BPS added prior to AGE-BSA, 5 days culture): 1 µM
